Earlier results, collected in US7056947B2, “Aza-peptide epoxides” (Georgia Tech Research Corp., priority 2002, dated 2006).

Key:
[1] = test system: ficin; details: E-64; cited from earlier work
[2] = molecular target: fruit bromelain (Ananas comosus, UniProt O23791); details: E-64; cited from earlier work
[3] = molecular target: stem bromelain (Ananas comosus, UniProt P14518); details: E-64; cited from earlier work
[4] = molecular target: T1, papain (Carica papaya, UniProt P00784); details: E-64; cited from earlier work
T1 sequence (P00784 134-345): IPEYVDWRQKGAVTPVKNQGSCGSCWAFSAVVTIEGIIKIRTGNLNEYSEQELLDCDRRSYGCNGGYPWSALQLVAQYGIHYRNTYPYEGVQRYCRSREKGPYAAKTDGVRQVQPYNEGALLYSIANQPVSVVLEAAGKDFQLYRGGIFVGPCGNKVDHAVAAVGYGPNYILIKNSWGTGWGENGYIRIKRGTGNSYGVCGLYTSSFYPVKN

[5] = molecular target: cathepsin B (Homo sapiens, UniProt P07858); details: E-64; cited from earlier work
[6] = molecular target: cathepsin H (Homo sapiens, UniProt P09668); details: E-64; cited from earlier work
[7] = molecular target: cathepsin L (Homo sapiens, UniProt P07711); details: E-64; cited from earlier work
[8] = molecular target: cathepsin K (Homo sapiens, UniProt P43235); details: E-64; cited from earlier work
[9] = molecular target: cathepsin S (Homo sapiens, UniProt P25774); details: E-64; cited from earlier work
[10] = molecular target: cathepsin X (Homo sapiens, UniProt Q9UBR2); details: E-64; cited from earlier work
Chain of cathepsin X (Q9UBR2 62-303): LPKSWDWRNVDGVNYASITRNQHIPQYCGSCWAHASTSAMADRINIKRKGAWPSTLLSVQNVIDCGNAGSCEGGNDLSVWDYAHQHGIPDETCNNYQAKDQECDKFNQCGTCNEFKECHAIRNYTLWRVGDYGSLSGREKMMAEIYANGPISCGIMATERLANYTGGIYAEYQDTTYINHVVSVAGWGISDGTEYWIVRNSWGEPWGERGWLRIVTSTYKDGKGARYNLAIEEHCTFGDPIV

[11] = test system: cathepsin O; details: E-64; cited from earlier work
[12] = molecular target: cathepsin F (Homo sapiens, UniProt Q9UBX1); details: E-64, rate not given; cited from earlier work
[13] = molecular target: cathepsin V (Homo sapiens, UniProt O60911); details: E-64; cited from earlier work
Chain of cathepsin V (O60911 114-334, species assumed): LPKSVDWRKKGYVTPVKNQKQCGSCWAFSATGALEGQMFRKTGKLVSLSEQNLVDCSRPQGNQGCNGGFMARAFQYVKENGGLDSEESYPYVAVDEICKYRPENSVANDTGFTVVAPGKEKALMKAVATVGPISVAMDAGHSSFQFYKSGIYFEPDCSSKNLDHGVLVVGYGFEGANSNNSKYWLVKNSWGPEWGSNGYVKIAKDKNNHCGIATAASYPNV

[14] = test system: cathepsin J; details: E-64, rate not given; cited from earlier work
[15] = molecular target: DPPI (Homo sapiens, UniProt P53634); details: E-64; cited from earlier work
Chain of DPPI (P53634 25-463, species assumed): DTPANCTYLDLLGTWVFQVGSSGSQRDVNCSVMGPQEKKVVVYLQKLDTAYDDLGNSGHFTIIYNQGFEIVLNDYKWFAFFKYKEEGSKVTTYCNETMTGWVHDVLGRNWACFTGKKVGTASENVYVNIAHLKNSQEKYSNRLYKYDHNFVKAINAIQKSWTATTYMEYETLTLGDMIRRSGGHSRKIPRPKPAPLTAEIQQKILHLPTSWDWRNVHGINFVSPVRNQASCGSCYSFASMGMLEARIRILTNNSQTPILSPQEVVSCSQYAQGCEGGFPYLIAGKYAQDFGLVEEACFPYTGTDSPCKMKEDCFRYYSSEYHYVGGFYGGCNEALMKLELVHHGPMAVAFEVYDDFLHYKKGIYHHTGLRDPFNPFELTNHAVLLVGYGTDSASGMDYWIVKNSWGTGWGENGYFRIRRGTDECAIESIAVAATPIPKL

[16] = molecular target: streptococcal proteinase (Streptococcus pyogenes, UniProt P0C0J0); details: cited from earlier work
[17] = molecular target: papaya proteinase IV (Carica papaya, UniProt P05994); details: E-64; cited from earlier work
Chain of papaya proteinase IV (P05994 133-348): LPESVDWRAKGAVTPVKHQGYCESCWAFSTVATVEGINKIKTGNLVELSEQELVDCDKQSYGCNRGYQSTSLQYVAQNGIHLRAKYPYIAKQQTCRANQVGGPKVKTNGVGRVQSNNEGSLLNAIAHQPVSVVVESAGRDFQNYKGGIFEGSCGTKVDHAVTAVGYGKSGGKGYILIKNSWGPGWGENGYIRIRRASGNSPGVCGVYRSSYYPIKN

[18] = molecular target: calpain II (Homo sapiens, UniProt P17655); details: E-64; cited from earlier work
Chain of calpain II (P17655 whole entry): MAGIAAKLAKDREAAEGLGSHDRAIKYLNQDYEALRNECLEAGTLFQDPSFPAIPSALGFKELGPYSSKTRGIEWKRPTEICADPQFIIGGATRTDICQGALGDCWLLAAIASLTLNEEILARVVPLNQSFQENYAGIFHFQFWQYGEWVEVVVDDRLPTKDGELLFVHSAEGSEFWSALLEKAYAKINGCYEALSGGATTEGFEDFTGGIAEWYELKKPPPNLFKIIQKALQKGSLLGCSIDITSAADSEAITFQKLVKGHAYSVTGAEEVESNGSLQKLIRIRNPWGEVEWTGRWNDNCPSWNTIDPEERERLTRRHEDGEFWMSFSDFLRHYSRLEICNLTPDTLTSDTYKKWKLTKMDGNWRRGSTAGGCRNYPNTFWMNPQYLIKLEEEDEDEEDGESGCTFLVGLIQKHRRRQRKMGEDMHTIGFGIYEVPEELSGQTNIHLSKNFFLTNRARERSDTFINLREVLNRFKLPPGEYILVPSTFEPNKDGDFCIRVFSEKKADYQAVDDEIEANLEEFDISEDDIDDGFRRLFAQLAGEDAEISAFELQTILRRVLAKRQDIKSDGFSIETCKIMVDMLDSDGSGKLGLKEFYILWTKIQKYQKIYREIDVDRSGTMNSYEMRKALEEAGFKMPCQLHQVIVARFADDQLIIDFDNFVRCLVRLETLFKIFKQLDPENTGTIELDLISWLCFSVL
Chain of calpain II (P04632 whole entry partner): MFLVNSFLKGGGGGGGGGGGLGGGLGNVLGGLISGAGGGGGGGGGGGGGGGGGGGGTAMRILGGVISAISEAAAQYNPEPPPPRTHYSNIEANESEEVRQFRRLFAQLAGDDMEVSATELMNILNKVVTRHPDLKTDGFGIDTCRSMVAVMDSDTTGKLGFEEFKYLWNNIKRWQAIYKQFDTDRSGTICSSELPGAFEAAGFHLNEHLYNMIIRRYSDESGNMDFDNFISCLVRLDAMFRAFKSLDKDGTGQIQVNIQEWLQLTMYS

[19] = molecular target: bleomycin hydrolase (Homo sapiens, UniProt Q13867); details: E-64; cited from earlier work
Chain of bleomycin hydrolase (Q13867 whole entry, species assumed): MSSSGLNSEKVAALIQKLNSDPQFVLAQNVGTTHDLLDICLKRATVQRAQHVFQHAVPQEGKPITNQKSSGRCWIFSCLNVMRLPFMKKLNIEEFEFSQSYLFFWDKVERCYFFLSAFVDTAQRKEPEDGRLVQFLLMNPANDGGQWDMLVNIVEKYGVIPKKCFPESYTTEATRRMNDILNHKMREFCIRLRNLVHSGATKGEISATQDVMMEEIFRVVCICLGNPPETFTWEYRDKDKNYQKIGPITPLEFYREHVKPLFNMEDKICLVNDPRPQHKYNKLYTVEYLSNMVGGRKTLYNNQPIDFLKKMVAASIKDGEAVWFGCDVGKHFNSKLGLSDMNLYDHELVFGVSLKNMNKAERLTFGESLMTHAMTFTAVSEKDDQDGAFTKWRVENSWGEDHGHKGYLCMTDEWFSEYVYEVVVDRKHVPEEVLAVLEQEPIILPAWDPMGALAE

[20] = molecular target: cruzain (Trypanosoma cruzi, UniProt P25779); details: E-64; cited from earlier work
Chain of cruzain (P25779 123-467): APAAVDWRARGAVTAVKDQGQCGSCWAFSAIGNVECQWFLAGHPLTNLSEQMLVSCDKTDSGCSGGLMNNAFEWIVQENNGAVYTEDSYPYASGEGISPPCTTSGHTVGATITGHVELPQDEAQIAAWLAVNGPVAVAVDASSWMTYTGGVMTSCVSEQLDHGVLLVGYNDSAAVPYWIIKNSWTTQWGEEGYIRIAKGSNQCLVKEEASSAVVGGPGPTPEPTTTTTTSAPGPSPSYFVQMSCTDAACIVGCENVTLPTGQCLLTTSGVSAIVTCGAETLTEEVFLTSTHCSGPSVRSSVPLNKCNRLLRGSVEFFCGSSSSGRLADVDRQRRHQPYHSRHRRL

[21] = molecular target: vignain (Vigna mungo, UniProt P12412); details: E-64; cited from earlier work
[22] = molecular target: T2, trypsin (Bos taurus, UniProt P00760); details: E-64; cited from earlier work
T2 construct: gene PRSS1

[23] = molecular target: α-chymotrypsin (Bos taurus, UniProt P00766); details: E-64; cited from earlier work
[24] = test system: kallikrein; details: E-64; cited from earlier work
[25] = molecular target: pepsin (Homo sapiens, UniProt P0DJD8); details: E-64; cited from earlier work
Chain of pepsin (P0DJD8 63-388): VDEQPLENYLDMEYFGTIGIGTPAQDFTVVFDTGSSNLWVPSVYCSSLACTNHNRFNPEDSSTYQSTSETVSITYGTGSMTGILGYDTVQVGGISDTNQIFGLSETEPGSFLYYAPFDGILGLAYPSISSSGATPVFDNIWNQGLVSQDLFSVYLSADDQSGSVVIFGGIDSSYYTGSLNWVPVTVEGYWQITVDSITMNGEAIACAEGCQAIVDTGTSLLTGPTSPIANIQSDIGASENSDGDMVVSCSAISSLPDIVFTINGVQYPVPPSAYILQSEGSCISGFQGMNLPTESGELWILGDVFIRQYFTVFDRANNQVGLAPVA

[26] = molecular target: plasmin (Homo sapiens, UniProt P00747); details: E-64; cited from earlier work
Chain of plasmin (P00747 97-810, species assumed): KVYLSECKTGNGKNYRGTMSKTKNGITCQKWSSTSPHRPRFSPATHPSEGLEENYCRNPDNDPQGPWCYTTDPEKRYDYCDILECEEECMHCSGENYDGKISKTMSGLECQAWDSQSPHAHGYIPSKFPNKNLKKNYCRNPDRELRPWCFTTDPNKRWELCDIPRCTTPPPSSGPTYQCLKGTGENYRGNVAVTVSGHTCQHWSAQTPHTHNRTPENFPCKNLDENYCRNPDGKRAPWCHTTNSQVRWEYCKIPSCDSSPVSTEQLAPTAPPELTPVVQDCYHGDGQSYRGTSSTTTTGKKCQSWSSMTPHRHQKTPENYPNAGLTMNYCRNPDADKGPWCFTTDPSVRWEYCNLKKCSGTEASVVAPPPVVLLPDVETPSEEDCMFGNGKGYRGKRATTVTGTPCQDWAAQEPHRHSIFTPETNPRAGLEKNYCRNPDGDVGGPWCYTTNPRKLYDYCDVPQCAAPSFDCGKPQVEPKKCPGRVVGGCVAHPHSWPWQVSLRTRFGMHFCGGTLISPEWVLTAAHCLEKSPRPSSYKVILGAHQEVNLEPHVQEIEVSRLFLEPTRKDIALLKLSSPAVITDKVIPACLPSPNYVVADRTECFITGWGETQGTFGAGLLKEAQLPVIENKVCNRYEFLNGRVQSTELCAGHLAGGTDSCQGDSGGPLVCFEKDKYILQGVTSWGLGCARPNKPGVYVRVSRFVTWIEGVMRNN

[27] = test system: elastase; details: E-64; cited from earlier work
[28] = test system: mold acid protease; details: E-64; cited from earlier work
[29] = test system: LDH; details: E-64; cited from earlier work
[30] = molecular target: thermolysin (Bacillus thermoproteolyticus, UniProt P00800); details: E-64; cited from earlier work
[31] = test system: collagenase; details: E-64; cited from earlier work
[32] = molecular target: clostripain (Hathewaya histolytica, UniProt P09870); details: E-64; cited from earlier work
Chain of clostripain (P09870 51-526): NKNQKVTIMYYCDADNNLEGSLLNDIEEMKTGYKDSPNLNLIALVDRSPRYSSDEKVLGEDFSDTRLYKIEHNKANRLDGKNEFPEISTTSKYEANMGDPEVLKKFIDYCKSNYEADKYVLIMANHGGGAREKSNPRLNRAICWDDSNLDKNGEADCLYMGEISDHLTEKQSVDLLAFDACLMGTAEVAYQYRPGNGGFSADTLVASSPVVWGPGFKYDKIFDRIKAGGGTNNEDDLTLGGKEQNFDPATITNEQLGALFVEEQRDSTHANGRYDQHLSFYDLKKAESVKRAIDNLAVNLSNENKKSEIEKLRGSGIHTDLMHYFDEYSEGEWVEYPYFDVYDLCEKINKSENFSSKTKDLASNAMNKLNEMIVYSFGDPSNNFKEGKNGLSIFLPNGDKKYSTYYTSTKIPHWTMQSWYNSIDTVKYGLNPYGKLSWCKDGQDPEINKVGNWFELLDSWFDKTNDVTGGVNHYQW

[33] = molecular target: caspase 1 (ICE) (Homo sapiens, UniProt P29466); details: E-64; cited from earlier work
[34] = molecular target: legumain (Homo sapiens, UniProt Q99538); details: E-64; cited from earlier work
Chain of legumain (Q99538 18-323, species assumed): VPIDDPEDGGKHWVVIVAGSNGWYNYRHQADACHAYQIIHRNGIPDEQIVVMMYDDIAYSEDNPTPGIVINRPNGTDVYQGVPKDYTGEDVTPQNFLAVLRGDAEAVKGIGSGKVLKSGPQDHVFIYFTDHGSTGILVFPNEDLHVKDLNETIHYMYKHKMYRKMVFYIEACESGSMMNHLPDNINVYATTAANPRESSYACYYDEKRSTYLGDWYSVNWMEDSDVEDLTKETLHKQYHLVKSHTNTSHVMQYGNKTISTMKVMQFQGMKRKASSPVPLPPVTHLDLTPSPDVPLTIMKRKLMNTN

Chain of stem bromelain (P14518 whole entry): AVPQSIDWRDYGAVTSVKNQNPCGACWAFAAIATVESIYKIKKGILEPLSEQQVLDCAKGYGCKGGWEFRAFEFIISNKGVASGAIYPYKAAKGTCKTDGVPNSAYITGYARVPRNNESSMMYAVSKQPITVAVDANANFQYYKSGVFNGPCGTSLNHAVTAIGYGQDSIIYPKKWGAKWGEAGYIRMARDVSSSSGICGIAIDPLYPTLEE

## CC(C)C[C@H](NC(=O)[C@H]1O[C@@H]1C(=O)O)C(=O)NCCCCNC(=N)N [E-64, N-(N-(L-3-trans-carboxyoxiran-2-carbonyl)-L-leucyl)agmatine]
[1]
  ID50, ficin: 0.084 (ID50)
[2]
  ID50, fruit bromelain: 0.110 (ID50)
[3]
  ID50, stem bromelain: 0.025 (ID50)
[4]
  ID50, papain: 0.104 (ID50)
[5]
  rate, cathepsin B: 89,400 M^−1 s^−1
[6]
  rate, cathepsin H: 4,000 M^−1 s^−1
[7]
  rate, cathepsin L: 96,250 M^−1 s^−1
[8]
  Ki: 1.8 nM
[9]
  rate, cathepsin S: 99,000 M^−1 s^−1
[10]
  rate, cathepsin X: 775 M⁻¹ s⁻¹
[11]
  IC50: > 100000 nM
[12]
  enzymes inactivated: cathepsin F: cathepsin F
[13]
  IC50: > 100 nM
[14]
  enzymes inactivated: cathepsin J: cathepsin J
[15]
  rate, DPPI: 100 M⁻¹ s⁻¹
[16]
  rate, streptococcal proteinase: 624 M⁻¹ s⁻¹
[17]
  rate, papaya proteinase IV: 58,000 M^−1 s^−1
[18]
  rate, calpain II: 7,500 M^−1 s^−1
[19]
  IC50: > 160000 nM
[20]
  rate, cruzain: 70,600 M^−1 s^−1
[21]
  rate, vignain: 32,500 M^−1 s^−1
[22]
  enzymes not inactivated: trypsin: trypsin
[23]
  enzymes not inactivated: α-chymotrypsin: α-chymotrypsin
[24]
  enzymes not inactivated: kallikrein: kallikrein
[25]
  enzymes not inactivated: pepsin: pepsin
[26]
  enzymes not inactivated: plasmin: plasmin
[27]
  enzymes not inactivated: elastase: elastase
[28]
  enzymes not inactivated: mold acid protease: mold acid protease
[29]
  enzymes not inactivated: LDH: LDH
[30]
  enzymes not inactivated: thermolysin: thermolysin
[31]
  enzymes not inactivated: collagenase: collagenase
[32]
  enzymes not inactivated: clostripain: clostripain
[33]
  enzymes not inactivated: caspase 1 (ICE): caspase 1 (ICE)
[34]
  enzymes not inactivated: legumain: legumain
